Test results: ChEMBL document CHEMBL1201862, “PubChem BioAssay data set” (2004)
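1) Cells in 96-well plates. 2) Compound, 48 h, 5 concentrations. 3) Linear interpolation between surrounding doses. 4) Unreached endpoint = highest concentration. GI50 is the concentration that inhibits growth by half.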 The source made the active and inactive calls. Rule as the data show it: active = GI50 up to about 1.1 µM and inactive = higher.

Assays:
Experiment in all cases: NCI anticancer screen, dose series, 48 h
A498 = system: A498
HOP-92 = system: HOP-92
KM12 = system: KM12
HT-29 = system: HT-29
HCT-116 = system: HCT-116
DU-145 = system: DU-145
UACC-62 = system: UACC-62
U-251 = system: U-251
CAKI-1 = system: CAKI-1
SF-268 = system: SF-268
RPMI-8226 = system: RPMI-8226
K562 = system: K562
HOP-62 = system: HOP-62
COLO 205 = system: COLO 205
PC-3 = system: PC-3
OVCAR-8 = system: OVCAR-8
SF-295 = system: SF-295
Malme-3M = system: Malme-3M
MDA-N = system: MDA-N

Measured: GI50

CCCCCCCCCCCCCCCCOCC(COP(=O)(O)OCC1OC(n2cc(CC)c(=O)[nH]c2=O)CC1O)OC(=O)CCCCCCCCCCCCCCC (centres undefined)
inactive: A498 > 100 µM | HOP-92 > 100 µM | KM12 > 100 µM | HT-29 > 100 µM | HCT-116 > 100 µM | DU-145 > 100 µM | UACC-62 > 100 µM | U-251 > 100 µM | CAKI-1 > 100 µM | SF-268 > 100 µM | RPMI-8226 > 100 µM | K562 > 100 µM | HOP-62 > 100 µM | COLO 205 > 100 µM | PC-3 > 100 µM | OVCAR-8 > 100 µM | SF-295 > 100 µM

Cc1ccccc1-n1c(=O)c2ncn(CCCl)c2n(-c2ccccc2C)c1=S
inactive: A498 > 100 µM | HOP-92 > 100 µM | KM12 > 100 µM | HT-29 > 100 µM | HCT-116 > 100 µM | DU-145 > 100 µM | UACC-62 > 100 µM | U-251 > 100 µM | CAKI-1 > 100 µM | SF-268 > 100 µM | RPMI-8226 > 100 µM | K562 > 100 µM | HOP-62 > 100 µM | COLO 205 > 100 µM | PC-3 73.1 µM | OVCAR-8 > 100 µM | SF-295 > 100 µM

COc1cc2nc(Nc3cccc(Br)c3)nc(Nc3cccc(Br)c3)c2cc1OC
inactive: HOP-92 15.3 µM | KM12 18.9 µM | HT-29 18.7 µM | HCT-116 17.6 µM | DU-145 18.3 µM | UACC-62 18.8 µM | U-251 19.2 µM | CAKI-1 15.7 µM | SF-268 16.2 µM | K562 22.8 µM | Malme-3M 19.1 µM | HOP-62 18 µM | COLO 205 13.9 µM | MDA-N 18.7 µM | PC-3 20.4 µM | OVCAR-8 16.6 µM | SF-295 17.7 µM

CCOC(=O)/C=C\[C@H]1OC(C)(C)O[C@H]1[C@H](O)[C@H]1COC(C)(C)O1
inactive: A498 16.6 µM | HOP-92 13.2 µM | KM12 77.3 µM | HT-29 20.7 µM | HCT-116 19.7 µM | DU-145 > 100 µM | UACC-62 23.7 µM | U-251 17.7 µM | CAKI-1 2.57 µM | SF-268 25.4 µM | RPMI-8226 19.8 µM | K562 10.4 µM | Malme-3M 18.9 µM | HOP-62 66.4 µM | COLO 205 15.8 µM | PC-3 20.7 µM | OVCAR-8 29.8 µM | SF-295 > 100 µM

COc1ccccc1NC(=S)Nc1cccc(C)n1
inactive: A498 > 100 µM | KM12 25.6 µM | HT-29 45.3 µM | HCT-116 > 100 µM | DU-145 > 100 µM | UACC-62 42.4 µM | U-251 > 100 µM | CAKI-1 88.5 µM | SF-268 18.4 µM | RPMI-8226 > 100 µM | K562 > 100 µM | Malme-3M 16.7 µM | HOP-62 43.6 µM | COLO 205 > 100 µM | PC-3 > 100 µM | OVCAR-8 > 100 µM | SF-295 69 µM

Cc1ccc(S(=O)(=O)NC(=O)NCCc2c[nH]cn2)cc1
inactive: A498 > 100 µM | HOP-92 > 100 µM | KM12 > 100 µM | HT-29 > 100 µM | HCT-116 > 100 µM | DU-145 > 100 µM | UACC-62 > 100 µM | U-251 > 100 µM | CAKI-1 > 100 µM | SF-268 > 100 µM | RPMI-8226 > 100 µM | K562 > 100 µM | Malme-3M > 100 µM | HOP-62 > 100 µM | COLO 205 > 100 µM | PC-3 > 100 µM | OVCAR-8 > 100 µM | SF-295 > 100 µM

[N-]=[N+]=C(C(=O)N1CCCC1=O)S(=O)(=O)c1ccccc1
inactive: KM12 > 100 µM | HT-29 > 10 µM | HCT-116 80.4 µM | DU-145 > 100 µM | UACC-62 70.6 µM | U-251 > 100 µM | SF-268 > 100 µM | RPMI-8226 48.3 µM | K562 69.5 µM | Malme-3M 28.3 µM | HOP-62 58.6 µM | COLO 205 > 100 µM | MDA-N 44 µM | PC-3 > 100 µM | OVCAR-8 > 100 µM | SF-295 > 100 µM

CCOC(=O)C(/C(=N\NC(=O)OC)C(=O)Nc1cc(OC)ccc1OC)c1cnc2ccccc2n1 (centres undefined)
inactive: A498 > 100 µM | HOP-92 > 100 µM | HT-29 > 100 µM | HCT-116 > 100 µM | UACC-62 > 100 µM | U-251 > 100 µM | CAKI-1 > 100 µM | SF-268 > 100 µM | RPMI-8226 > 100 µM | K562 > 100 µM | Malme-3M > 100 µM | HOP-62 > 100 µM | COLO 205 > 100 µM | OVCAR-8 > 100 µM | SF-295 > 100 µM

Cn1c(=O)c2c(no[n+]2[O-])n(C)c1=O
inactive: A498 18.2 µM | HOP-92 19.1 µM | KM12 52 µM | HT-29 31.2 µM | HCT-116 > 100 µM | UACC-62 19.5 µM | U-251 22.6 µM | CAKI-1 19.3 µM | SF-268 25.6 µM | RPMI-8226 > 100 µM | K562 > 100 µM | Malme-3M 18.5 µM | HOP-62 18.4 µM | COLO 205 23 µM | MDA-N 22.4 µM | PC-3 > 100 µM | OVCAR-8 19.1 µM | SF-295 52.4 µM

CCOC(=O)Cc1csc2[n+]1C(=O)/C(=C\c1cccc(Cl)c1Cl)S2
inactive: HOP-92 6.85 µM | KM12 15.4 µM | HT-29 21.8 µM | HCT-116 12.7 µM | DU-145 16.9 µM | UACC-62 4.94 µM | U-251 16.6 µM | CAKI-1 23.6 µM | SF-268 29.2 µM | HOP-62 20.8 µM | COLO 205 1.7 µM | MDA-N 17.7 µM | PC-3 13.3 µM | OVCAR-8 19.5 µM | SF-295 15.3 µM

CN(C)CCC(/C=C/c1ccccc1)=N\Nc1c(F)c(F)c(F)c(F)c1F
inactive: A498 62.2 µM | KM12 > 100 µM | HT-29 27 µM | HCT-116 > 100 µM | UACC-62 49.2 µM | U-251 > 100 µM | SF-268 > 100 µM | RPMI-8226 24.8 µM | K562 39.4 µM | Malme-3M 38 µM | HOP-62 > 100 µM | COLO 205 > 100 µM | OVCAR-8 53.8 µM | SF-295 28.6 µM

Cc1ccc(C(=O)c2[nH]c(Nc3cc(C)ccn3)c(C(=S)Nc3ccccc3)c2N)cc1
inactive: A498 > 100 µM | HOP-92 > 100 µM | KM12 > 100 µM | HT-29 > 100 µM | HCT-116 > 100 µM | DU-145 > 100 µM | UACC-62 > 100 µM | U-251 > 100 µM | CAKI-1 > 100 µM | SF-268 > 100 µM | K562 > 100 µM | Malme-3M > 100 µM | HOP-62 > 100 µM | COLO 205 > 100 µM | MDA-N > 100 µM | OVCAR-8 > 100 µM | SF-295 > 100 µM
